# Measured values as given in patent publication US4551445A, “Derivatives of arginine vasopressin antagonists” (The Medical College of Ohio, priority 1983, dated 1985).
# Starred links: 1 amine or outer side, 2 acyl side, 3 side chain; linkers in the order of their positions; H or OH if unused. Positions of bridges follow the written chain, without caps; N, C: chain ends. Non-standard residues stand in square brackets, D forms with d. Residues, ends and D or L forms follow the SMILES beside them. X1 = O=C(CC1(S[*:2])CCCCC1)[*:1]
# What was measured:
# [1] = system: antidiuretic response to arginine vasopressin (ADH); assay: Anti-antidiuretic: antagonism of the antidiuretic response to subsequent injections of vasopressin; assay type: in vivo, rats; settings: for Anti-Antidiuretic pA2: estimated in vivo pA2, volume of distribution 67 ml/kg
# Protocol: Activity as antidiuretic agonists was determined by intravenous injection of the compounds being evaluated in ethanol-anesthesized water-loaded rats in accordance with Sawyer, Endocrinology, vol. 63 (1958) at 694. Antagonism of the response to subsequent injections of vasopressin was tested as described by Sawyer et al., Science, vol. 212 (1981) at 49.
# (§1) Antagonistic potencies were determined and expressed as "effective doses" and pA2 values. The "effective dose" is defined as the dose (in nanomoles per kilogram) that reduces the response seen from 2x units of agonist injected 20 min after the dose of antagonist to the response with 1x units of agonist. Estimated in vivo "pA2 " values represent the negative logarithms of the effective doses, divided by the estimated volume of distribution (67 ml/kg).
# [2] = system: vasopressor response to arginine vasopressin; assay: Antivasopressor: antagonism to the vasopressor response (Dyckes et al.); assay type: in vivo; settings: for Antivasopressor pA2: Table 1, estimated in vivo pA2
# Protocol: Antagonism to the vasopressor response was estimated in accordance with Dyckes et al., J. Med. Chem., vol. 17 (1974) at 969. The values are expressed as pA2 values, defined as in Schild et al., Br. J. Pharmacol., vol. 2 (1947) at 189.
# as §1
Compound,Anti-Antidiuretic pA2 ([1]; Table 1),Antivasopressor pA2 [2],"Anti-Antidiuretic ED ([1]; Table 2, effective dose) [nmol/kg]",Anti-Antidiuretic pA2 ([1]; Table 2),"Antivasopressor Potency ED ([2]; Table 2, effective dose) [nmol/kg]","AD/VP ([2]; Table 2, ratio, values fit antivasopressor ED / anti-antidiuretic ED)"
COc1ccc(C[C@@H]2NC(=O)CC3(CCCCC3)SSC[C@H](C(=O)N3CCC[C@H]3C(=O)N[C@@H](CCCNC(=N)N)C(=O)NCC(N)=O)NC(=O)[C@H](CC(N)=O)NC(=O)[C@H](CCC(N)=O)NC(=O)[C@H](Cc3ccccc3)NC2=O)cc1 [d(CH2)5 Tyr(Me)^2 D-Cys^6 AVP] (Y(Me)FQN[dC]PRG-NH2; linker N-5 via X1),5.5,7.87 ± 0.09,–,–,–,–
"[1-(β-mercapto-β,β-cyclopentamethylenepropionic acid), 2-D-phenylalanine, 4-leucine, 7-hydroxyproline]-arginine vasopressin [d(CH2)5 D-Phe^2 Ile^4 Hy-Pro^7 AVP]",–,–,1.3 ± 0.3,7.74,0.9 ± 0.2,0.7
CCOc1ccc(C[C@@H]2NC(=O)CC3(CCCCC3)SSC[C@@H](C(=O)N3CCC[C@@H]3C(=O)N[C@@H](CCCNC(=N)N)C(=O)NCC(N)=O)NC(=O)[C@H](CC(N)=O)NC(=O)[C@H](C(C)C)NC(=O)[C@H](Cc3ccccc3)NC2=O)cc1 [d(CH2)5 Tyr(Et)^2 D-Pro^7 VAVP] (Y(Et)FVNC[dP]RG-NH2; linker N-5 via X1),6.32 ± 0.11,8.23 ± 0.13,–,–,–,–
COc1ccc(C[C@H]2NC(=O)CC3(CCCCC3)SSC[C@@H](C(=O)N3CCC[C@H]3C(=O)N[C@@H](CCCNC(=N)N)C(=O)NCC(N)=O)NC(=O)[C@H](CC(N)=O)NC(=O)[C@H](C(C)C)NC(=O)[C@H](Cc3ccccc3)NC2=O)cc1 [d(CH2)5 --D-Tyr(Me)VAVP] ([dY](Me)FVNCPRG-NH2; linker N-5 via X1),7.77 ± 0.07,8.48 ± 0.08,–,–,–,–
